{"source": "paper PMC6469979", "about": "“A Dopamine-Responsive Signal Transduction Controls Transcription of Salmonella enterica Serovar Typhimurium Virulence Genes” (mBio, 2019)", "target": "EmrR-His6 (EmrR) (Salmonella enterica, UniProt Q7CPY9)", "sequence (Q7CPY9 entry or part of it)": "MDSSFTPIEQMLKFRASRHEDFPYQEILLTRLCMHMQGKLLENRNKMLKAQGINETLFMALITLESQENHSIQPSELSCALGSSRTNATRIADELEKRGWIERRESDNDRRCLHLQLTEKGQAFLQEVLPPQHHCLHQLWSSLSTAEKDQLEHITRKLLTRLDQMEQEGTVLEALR", "assay": "EMSA, release of EmrR-His6 from […]-labelled pagC-pagD promoter DNA", "conditions": "dopamine 1, 10, 100 uM; 50 pmol EmrR-His6 in 20 ul; room temperature, 30 min; DNA-binding inhibition", "data": [{"compound": "NCCc1ccc(O)c(O)c1", "note": "[dopamine]", "values": [{"measurement": "EMSA, release of EmrR-His6 from 32P-labelled pagC-pagD promoter DNA", "result": "dopamine alone was sufficient to reduce the affinity of a pure EmrR protein"}]}]}
